Experiments:
[1] = Body weight of DU145 tumor nude mice; conditions: for Body Weight, mean value / Decrease rate (body weight) / Decrease in body weight: 3×/w, 4 w;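 as to all read-outs here: dosing started once xenografts reached 150-200 mm^3, with mice randomized into three groups, loss of body weight served as an indirect sign of drug toxicity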
Protocol: DU145 (the 3rd generation) tumors in the rapid proliferation stage inoculated in the axilla of nude mice were cut into tumor lumps with a size of 1 mm*1 mm*1 mm and then were inoculated subcutaneously to the right limb of nude mice using a trocar under a sterile condition. When the tumors grow to 150-200 mm^3, the mice were randomly divided into three groups and then administrated with the compounds for 4 weeks. The major diameter (a) and the minor diameter (b) of the tumors were measured 2 or 3 times a week. The tumor volume (TV) was calculated with the following equation: TV=½×a×b^2. Tumors were stripped and weighted at Day 28 and the tumor inhibition rate was calculated using the following equation: (tumor weight of control−tumor weight of experimental group)/tumor weight of control×100%.
The nude mice were divided into 3 groups with 4 mice per group when the tumors averagely grew to about 185-200 mm^3, depending on the growth regularity of the tumor and the dosage regimen.
G1: positive drug group: Everolimus (5 mg/kg, qw, 4 w, 3×/w); administration route: intragastrical administration;

[2] = Body weight of NCI-H460 tumor nude mice; conditions: for Body Weights, mean value / Decrease rate (body weight) / Decrease in body weight: everolimus 5 mg/kg, compound I-1 6.8 mg/kg, qw 4×;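 as to all read-outs here: Tumor-bearing mice dosed for 4 weeks once tumors reached 150–200 mm^3, with a vehicle control group, and body weight loss taken as an indirect sign of drug toxicity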
Protocol: NCI-H460 (the 3rd generation) tumors in the rapid proliferation stage inoculated in the axilla of nude mice were cut into tumor lumps with a size of 1 mm*1 mm*1 mm and then were inoculated subcutaneously to the right limb of nude mice using a trocar under a sterile condition. When the tumors grew to 150˜200 mm^3, the mice were divided into groups and then administrated with the compounds for 4 weeks. The major diameter (a) and the minor diameter (b) of the tumors were measured two or three times a week. The tumor volume (TV) and the relative tumor proliferation rate (T/C) were calculated. The equation for calculating the tumor volume is: TV=½×a×b^2. The equation for calculating the relative tumor proliferation rate is T/C=TRTC/CRTV (TRTC: average relative tumor volume in the treatment group; CRTV: average relative tumor volume in the vehicle control group). Tumors were stripped and weighted at Day 28 and the tumor-inhibition rate was calculated with the following equation: (tumor weight of control−tumor weight of experimental group)/tumor weight of control×100%.
Grouping method: the mice were divided into 3 groups with 6 mice per group when the tumors averagely grew to about 195 mm^3, depending on the growth regularity of the tumor and the dosage regimen. Administration route: intragastrical administration.
G1: Control (vehicle, qw 4×, iv)
G2: Positive drug group: Everolimus (5 mg/kg, qw 4×, iv)

[3] = Day 10, G3 compound I-1 1.7 mg/kg tail vein injection
[4] = Day 14, G2 compound I-1 3.4 mg/kg tail vein injection
[5] = Day 14, G3 compound I-1 1.7 mg/kg tail vein injection
[6] = Day 17, G2 compound I-1 3.4 mg/kg tail vein injection
[7] = Day 17, G3 compound I-1 1.7 mg/kg tail vein injection
[8] = Day 21, G2 compound I-1 3.4 mg/kg tail vein injection
[9] = Day 21, G3 compound I-1 1.7 mg/kg tail vein injection
[10] = Day 24, G2 compound I-1 3.4 mg/kg tail vein injection
[11] = Day 24, G3 compound I-1 1.7 mg/kg tail vein injection
[12] = Day 28, G2 compound I-1 3.4 mg/kg tail vein injection
[13] = Day 28, G3 compound I-1 1.7 mg/kg tail vein injection

SMILES: CO[C@H]1C[C@@H]2CC[C@@H](C)[C@@](O)(O2)C(=O)C(=O)N2CCCC[C@H]2C(=O)OC([C@H](C)C[C@@H]2CC[C@@H](OCCOC(=O)CSC[C@H](NC(=O)CC[C@H](N)C(=O)O)C(=O)NCC(=O)O)[C@H](OC)C2)CC(=O)[C@H](C)/C=C(\C)[C@@H](O)[C@@H](OC)C(=O)[C@H](C)C[C@@H](C)\C=C/C=C/C=C/1C (stereo partly shown) [Compound I-1]
- Body Weight, mean value [1, 3]: 27.18 g
- Decrease rate (body weight) [1, 3]: −1.18%
- Decrease in body weight ([1]; Day 10 vs Day 0, G2 compound I-1 3.4 mg/kg tail vein injection): -0.85 g
- Decrease in body weight ([1]; Day 10 vs Day 0, G3 compound I-1 1.7 mg/kg tail vein injection): -0.32 g
- Body Weight, mean value [1, 4]: 26.59 g
- Decrease rate (body weight) [1, 4]: −5.12%
- Body Weight, mean value [1, 5]: 27.69 g
- Decrease rate (body weight) [1, 5]: −3.10%
- Decrease in body weight ([1]; Day 14 vs Day 0, G2 compound I-1 3.4 mg/kg tail vein injection): -1.30 g
- Decrease in body weight ([1]; Day 14 vs Day 0, G3 compound I-1 1.7 mg/kg tail vein injection): -0.83 g
- Body Weight, mean value [1, 6]: 26.34 g
- Decrease rate (body weight) [1, 6]: −4.12%
- Body Weight, mean value [1, 7]: 27.81 g
- Decrease rate (body weight) [1, 7]: −3.54%
- Decrease in body weight ([1]; Day 17 vs Day 0, G2 compound I-1 3.4 mg/kg tail vein injection): -1.04 g
- Decrease in body weight ([1]; Day 17 vs Day 0, G3 compound I-1 1.7 mg/kg tail vein injection): -0.95 g
- Body Weight, mean value [1, 8]: 26.84 g
- Decrease rate (body weight) [1, 8]: −6.09%
- Body Weight, mean value [1, 9]: 28.10 g
- Decrease rate (body weight) [1, 9]: −4.61%
- Decrease in body weight ([1]; Day 21 vs Day 0, G2 compound I-1 3.4 mg/kg tail vein injection): -1.54 g
- Decrease in body weight ([1]; Day 21 vs Day 0, G3 compound I-1 1.7 mg/kg tail vein injection): -1.24 g
- Body Weight, mean value [1, 10]: 26.58 g
- Decrease rate (body weight) [1, 10]: −5.08%
- Body Weight, mean value [1, 11]: 28.12 g
- Decrease rate (body weight) [1, 11]: −4.68%
- Decrease in body weight ([1]; Day 24 vs Day 0, G2 compound I-1 3.4 mg/kg tail vein injection): -1.29 g
- Decrease in body weight ([1]; Day 24 vs Day 0, G3 compound I-1 1.7 mg/kg tail vein injection): -1.26 g
- Body Weight, mean value [1, 12]: 26.96 g
- Decrease rate (body weight) [1, 12]: −6.57%
- Body Weight, mean value [1, 13]: 28.27 g
- Decrease rate (body weight) [1, 13]: −5.26%
- Decrease in body weight ([1]; Day 28 vs Day 0, G2 compound I-1 3.4 mg/kg tail vein injection): -1.66 g
- Decrease in body weight ([1]; Day 28 vs Day 0, G3 compound I-1 1.7 mg/kg tail vein injection): -1.41 g
- toxic and side effect ([1]; injection administration of compound I-1 (3.4 and 1.7 mg/kg), judged from body weight): does not result in obvious toxic and side effect
- Body Weights, mean value ([2]; Day 0): 26.20 g
- Body Weights, mean value ([2]; Day 3): 25.49 g
- Decrease rate (body weight) ([2]; Day 3): 2.73%
- Decrease in body weight ([2]; Day 3 vs Day 0): 0.72 g
- Body Weights, mean value ([2]; Day 7): 26.79 g
- Decrease rate (body weight) ([2]; Day 7): −2.23%
- Decrease in body weight ([2]; Day 7 vs Day 0): -0.58 g
- Body Weights, mean value ([2]; Day 10): 26.20 g
- Decrease rate (body weight) ([2]; Day 10): 0.00%
- Decrease in body weight ([2]; Day 10 vs Day 0): 0.00 g
- Body Weights, mean value ([2]; Day 14): 27.74 g
- Decrease rate (body weight) ([2]; Day 14): −5.87%
- Decrease in body weight ([2]; Day 14 vs Day 0): -1.54 g
- Body Weights, mean value ([2]; Day 17): 27.84 g
- Decrease rate (body weight) ([2]; Day 17): −6.24%
- Decrease in body weight ([2]; Day 17 vs Day 0): -1.64 g
- Body Weights, mean value ([2]; Day 21): 28.42 g
- Decrease rate (body weight) ([2]; Day 21): −8.46%
- Decrease in body weight ([2]; Day 21 vs Day 0): -2.22 g
- Body Weights, mean value ([2]; Day 24): 28.09 g
- Decrease rate (body weight) ([2]; Day 24): −7.20%
- Decrease in body weight ([2]; Day 24 vs Day 0): -1.89 g
- Body Weights, mean value ([2]; Day 28): 29.00 g
- Decrease rate (body weight) ([2]; Day 28): −10.68%
- Decrease in body weight ([2]; Day 28 vs Day 0): -2.80 g
- toxic and side effect in vivo ([2]; judged from body weight, compound I-1 6.8 mg/kg vs everolimus 5 mg/kg): significantly lower than that of everolimus
